In paper PMC4434572, “Identification of novel drugs to target dormant micrometastases” (BMC Cancer, 2015):
Where two headings read alike, the source gives them in different places.

Columns and labels:
[1] = in vivo; settings: mouse
[2] = tested on: U251 (glioblastoma); assay: Proliferation EC50 on Matrigel vs SISgel; format: cell-based
[3] = tested on: Capan-1 (pancreatic); assay: Proliferation EC50 on SISgel vs monolayer; format: cell-based; settings: n = 6-8
Description: (§1) The libraries were obtained from the NCI (Diversity Library I) comprised of 2,918 compounds and a 10,000 compound diversity library from ChemBridge, Inc. (DiverSet-EXP). The NCI library is no longer available in the form used here, but how it was constructed is described (http://dtp.nci.nih.gov/branches/dscb/diversity_explanation.html). The ChemBridge library is a subset (Set Code NM1024) of the full 50,000 compound library (http://www.chembridge.com/screening_libraries/diversity_libraries/). Compounds were diluted to 100 μM before use. SISgel was prepared as described previously from powdered porcine small intestine submucosa obtained from Cook Biotech (W. Lafayette, IN). It is a natural product that is used extensively in tissue engineering as a bioscaffold. J82 bladder cancer cells and other cell lines were obtained from the ATCC (Bethesda, MD). The basic principle is that cells grown on any ECM are, in general, expected to show higher resistance to anticancer compounds than when grown on plastic. Therefore, compounds that show a higher activity toward cancer cells on a normal ECM than on a plastic surface would be candidates to target suppressed, micrometastatic cells. Efficacy in vitro was assessed by plating 30,000 cells in 50 μL of high glucose DMEM with penicillin-streptomycin and 10 % fetal calf serum on SISgel in a 96-well plate containing 50 μL of gelled SISgel per well. Cells were allowed to attach and assume the SISgel phenotype for 48 h. A matching plate without SISgel was prepared 24 h later by pipetting 3,000 cells in 100 μL of high glucose DMEM with penicillin-streptomycin and 10 % fetal calf serum into each well of 96 well plate. The cells were allowed to attach and grow for 24 h. These numbers of cells gave approximately equal replication rates at the time drug was added for cells grown on the plastic surface or SISgel as determined by the fraction of S-phase cells identified by flow cytometry. The cells were exposed to drug in fresh medium for 48 h, at which time the cell number was determined using the CFDA-AM cellular esterase proliferation assay (cat. #C1354, Life Technologies). For screening the results are reported as the ratio of cell count of cells on the plastic surface to the cell count on SISgel. An initial difference of 1.5 fold identified potential hits. All potential hits were confirmed in triplicate. Those compounds that replicated were confirmed by a full dose–response study yielding an EC50 using five wells per drug concentration. Data were analyzed using nonlinear regression to a sigmoid curve with Prism 4 (GraphPad Software, Inc., LaJolla, CA). Potential hits that were confirmed by dose–response using J82 were also tested with MDA-MB-435 breast cancer, PC-3 metastatic prostate cancer, Capan1 pancreatic cancer and the J82 bladder cancer cell lines.

[4] = tested on: J82 (bladder); assay: Proliferation EC50 on SISgel vs monolayer; format: cell-based; settings: n = 6-8
Description: as §1

[5] = tested on: AGS (gastric); assay: Proliferation EC50 on Matrigel vs SISgel; format: cell-based
[6] = tested on: MDA-MB-435 cells; assay: Proliferation (CFDA-AM esterase assay) of cells grown on SISgel, plastic or Matrigel, 48 h drug exposure; format: cell-based; settings: MDA-MB-435 grown on Matrigel (fully malignant phenotype)
[7] = tested on: DU145 (prostate); assay: Proliferation EC50 on Matrigel vs SISgel; format: cell-based

Structure (SMILES)	MTD ([1]; BALB/c, ip) [mg/kg]	MTD [1] [mg/kg]	Ratio ([2]; Matrigel/SISgel EC50, U251)	EC50 ([2]; U251 on Matrigel, read-out: EC50 Matrigel) [µM]	EC50 ([2]; U251 on SISgel, read-out: EC50 SISgel) [µM]	EC50 ([3]; Capan-1 monolayer, read-out: EC50 Monolayer) [µM]	EC50 ([3]; Capan-1 on SISgel, read-out: EC50 SISgel) [µM]	EC50 ([4]; J82 monolayer, read-out: EC50 Monolayer) [µM]	EC50 ([4]; J82 on SISgel, read-out: EC50 SISgel) [µM]	EC50 ([5]; AGS on Matrigel, read-out: EC50 Matrigel) [µM]	EC50 ([5]; AGS on SISgel, read-out: EC50 SISgel) [µM]	Ratio ([5]; Matrigel/SISgel EC50, AGS)	EC50 [6] [µM]	EC50 ([7]; DU145 on Matrigel, read-out: EC50 Matrigel) [µM]	EC50 ([7]; DU145 on SISgel, read-out: EC50 SISgel) [µM]	Ratio ([7]; Matrigel/SISgel EC50, DU145)
COc1cccc2c1C(=O)c1c(O)c3c(c(O)c1C2=O)C[C@@](O)(C(=O)CO)C[C@@H]3O[C@H]1C[C@H](N)[C@H](O)[C@H](C)O1 [Doxorubicin, reference compound]	1	1														
O=S(=O)([O-])c1cc(O)c2c(O)c(N=Nc3cccc4ccccc34)c(S(=O)(=O)[O-])cc2c1.[Na+].[Na+] [DT320, 4,5-Dihydroxy-3-(1-naphthalenylazo)-2,7-naphthalenedisulfonic acid disodium salt]			1.5	95	64.6	80.1 ± 10.2	22.9 ± 4.8	71.2 ± 8.1	30.9 ± 4.8	104	45.1	2.3	48.2	183	45.7	4.0
